Assay results taken from patent US10975056B2 (GlaxoSmithKline Intellectual Property Development Limited, priority 2016, dated 2021).
Where “and” joins values, the source holds several entries; their conditions need not be identical. Identical values can stand only once. Counter-ions that a name gives are not always drawn. Like-named read-outs stand apart in the source and are kept apart here.

Tests used:
[1] = molecular target: DNMT1 (Homo sapiens, UniProt P26358); test: DNMT1 biochemical activity, breaklight assay and/or SPA assay
[2] = tested on: erythroid progenitor cells (EPCs); test: Fetal hemoglobin (HbF) ELISA in day 7 erythroid progenitor cells; format: cell-based, human; details: Homo sapiens, Erythroid progenitor cell, HbF ELISA, day 7 EPCs, 5 days; read-out: EPC ELISA (pEC50 category) (converted);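 further: for fetal hemoglobin induction normalized to vehicle-treated cells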
Outline: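 CD34+-derived EPCs, 1,000 cells/well, rhEPO 3 U/mL; Compound A 22-pt series, […]; 5 d, 37° C, 5% CO2. Freeze-thaw lysis, anti-HbF capture + HRP anti-HbF, TMB, OD450. Normalized to DMSO wells.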

[3] = binned activity in either the breaklight or the SPA assay, read-out: DNMT1 BioChemical (pIC50 category) (converted)
[4] = binned activity in either the breaklight or the SPA assay
[5] = breaklight assay and/or SPA assay, repeated experimental runs, read-out: average pIC50 against DNMT1 (converted)

Sequence of DNMT1 (P26358 whole entry, looked up): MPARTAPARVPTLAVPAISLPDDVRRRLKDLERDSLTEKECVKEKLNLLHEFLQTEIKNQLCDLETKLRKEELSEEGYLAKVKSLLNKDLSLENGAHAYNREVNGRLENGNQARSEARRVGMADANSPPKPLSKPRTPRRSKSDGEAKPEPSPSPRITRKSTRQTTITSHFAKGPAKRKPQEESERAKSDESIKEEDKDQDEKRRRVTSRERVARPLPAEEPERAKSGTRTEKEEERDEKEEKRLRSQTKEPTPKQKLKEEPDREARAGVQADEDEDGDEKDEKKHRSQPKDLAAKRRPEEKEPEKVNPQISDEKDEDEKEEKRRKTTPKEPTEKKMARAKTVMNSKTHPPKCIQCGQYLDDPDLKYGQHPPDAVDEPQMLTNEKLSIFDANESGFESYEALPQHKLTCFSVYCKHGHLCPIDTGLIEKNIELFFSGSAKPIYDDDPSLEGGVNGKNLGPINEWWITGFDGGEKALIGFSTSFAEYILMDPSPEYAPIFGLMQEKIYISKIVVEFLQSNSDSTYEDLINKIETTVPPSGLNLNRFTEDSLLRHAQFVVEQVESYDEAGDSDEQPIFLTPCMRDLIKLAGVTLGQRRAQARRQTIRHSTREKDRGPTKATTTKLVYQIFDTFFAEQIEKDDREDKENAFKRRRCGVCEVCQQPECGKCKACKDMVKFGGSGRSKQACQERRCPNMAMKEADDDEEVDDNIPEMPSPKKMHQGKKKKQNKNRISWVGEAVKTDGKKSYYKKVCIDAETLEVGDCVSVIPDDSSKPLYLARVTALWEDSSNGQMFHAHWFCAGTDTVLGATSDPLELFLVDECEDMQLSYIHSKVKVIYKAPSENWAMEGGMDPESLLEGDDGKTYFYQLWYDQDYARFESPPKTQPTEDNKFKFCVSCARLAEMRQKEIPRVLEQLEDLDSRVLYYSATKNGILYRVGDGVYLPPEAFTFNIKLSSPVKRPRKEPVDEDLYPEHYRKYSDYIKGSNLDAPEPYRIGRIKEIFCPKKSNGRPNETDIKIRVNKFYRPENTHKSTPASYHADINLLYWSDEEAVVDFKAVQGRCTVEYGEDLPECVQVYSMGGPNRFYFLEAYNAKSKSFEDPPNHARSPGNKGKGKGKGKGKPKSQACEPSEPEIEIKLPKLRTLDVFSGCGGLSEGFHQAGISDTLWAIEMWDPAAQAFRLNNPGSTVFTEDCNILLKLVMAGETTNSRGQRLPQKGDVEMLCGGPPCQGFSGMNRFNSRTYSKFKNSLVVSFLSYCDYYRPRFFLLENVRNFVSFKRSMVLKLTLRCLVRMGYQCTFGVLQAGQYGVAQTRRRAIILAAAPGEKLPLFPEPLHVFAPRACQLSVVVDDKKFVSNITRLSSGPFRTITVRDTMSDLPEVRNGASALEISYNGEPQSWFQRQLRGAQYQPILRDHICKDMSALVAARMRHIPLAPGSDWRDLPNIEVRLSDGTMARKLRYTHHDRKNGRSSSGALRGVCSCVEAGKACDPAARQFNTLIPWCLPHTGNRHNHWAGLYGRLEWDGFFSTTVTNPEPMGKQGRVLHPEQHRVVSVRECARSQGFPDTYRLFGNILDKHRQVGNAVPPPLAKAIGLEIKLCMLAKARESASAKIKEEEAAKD

| IC50 [1, 3] [nM] | EC50 [2] [nM] | DNMT1 BioChemical (pIC50 category) [1, 4] | IC50 [1, 5] | Structure (SMILES) |
| --- | --- | --- | --- | --- |
| < 316 | < 316 | – | – | CCc1c(C#N)c(SC(C(N)=O)c2ccc(F)cc2)nc(N2CCC(NC)CC2)c1C#N (stereo not drawn) [Example 526, 2-((3,5-dicyano-4-ethyl-6-(4-(methylamino)piperidin-1-yl)pyridin-2-yl)thio)-2-(4-fluorophenyl)acetamide] |
| – | < 316 | D (Category D: ≥6.5) | – | CCc1c(C#N)c(S[C@H](C(N)=O)c2ccccc2)nc(N2CCC(C)(N)CC2)c1C#N (single isomer, unassigned) [Example 608, 2-((6-(4-amino-4-methylpiperidin-1-yl)-3,5-dicyano-4-ethylpyridin-2-yl)thio)-2-phenylacetamide] |
| 1000 to 31600 | 1000 to 31600 | – | – | CCc1c(C#N)c(SCc2ccc(CNC(C)=O)cc2)nc(N(C)CCOC(=O)[C@@H](N)C(C)C)c1C#N [Example 267] |
| – | < 316 | D (Category D: ≥6.5) | – | CCc1c(C#N)c(SCc2ccc(N(C)S(C)(=O)=O)cc2)nc(N2CCC(NCC(C)(C)C)CC2)c1C#N [Example 569, N-(4-(((3,5-dicyano-4-ethyl-6-(4-(neopentylamino)piperidin-1-yl)pyridin-2-yl)thio)methyl)phenyl)-N-methylmethanesulfonamide] |
| 316 to 1000 | > 31600 | – | – | CCc1c(C#N)c(SC(C(N)=O)c2ccccc2)nc(SC(C(N)=O)c2ccccc2)c1C#N (stereo not drawn) [Example 276, 2,2′-((3,5-Dicyano-4-ethylpyridine-2,6-diyl)bis(sulfanediyl))bis(2-phenylacetamide)] |
| 316 to 1000 | 1000 to 31600 | – | 316 to 1000 nM | CCc1c(C#N)c(SCc2ccc(CO)cc2)nc(N2CCCN(C)CC2)c1C#N [Example 85, 4-Ethyl-2-((4-(hydroxymethyl)benzyl)thio)-6-(4-methyl-1,4-diazepan-1-yl)pyridine-3,5-dicarbonitrile] |
| – | < 316 | D (Category D: ≥6.5) | – | CCc1c(C#N)c(SC(C(N)=O)c2ccccc2)nc(N(C)CCNCC(C)(C)C)c1C#N (stereo not drawn) [Example 488, 2-((3,5-dicyano-4-ethyl-6-(methyl(2-(neopentylamino)ethyl)amino)pyridin-2-yl)thio)-2-phenylacetamide] |
| 316 to 1000 | > 31600 | – | – | CCc1c(C#N)c(SCc2ccc(NC(=O)CN)cc2)nc(N2CCCN(C)CC2)c1C#N [Example 302, 2-Amino-N-(4-(((3,5-dicyano-4-ethyl-6-(4-methyl-1,4-diazepan-1-yl)pyridin-2-yl)thio)methyl)phenyl)acetamide] |
| – | < 316 | D (Category D: ≥6.5) | – | CCc1c(C#N)c(SC(C(N)=O)c2ccccc2)nc(N2CCC(NCC(C)(C)OC)CC2)c1C#N (stereo not drawn) [Example 446, 2-((3,5-dicyano-4-ethyl-6-(4-((2-methoxy-2-methylpropyl)amino)piperidin-1-yl)pyridin-2-yl)thio)-2-phenylacetamide] |
| 316 to 1000 | < 316 | – | – | CCc1c(C#N)c(SC(C(N)=O)c2ccc(C(F)(F)F)cc2)nc(N2CCCN(C)CC2)c1C#N (stereo not drawn) [Example 233, 2-((3,5-dicyano-4-ethyl-6-(4-methyl-1,4-diazepan-1-yl)pyridin-2-yl)thio)-2-(4-(trifluoromethyl)phenyl)acetamide] |
| – | 1000 to 31600 | D (Category D: ≥6.5) | – | CCc1c(C#N)c(SC(C(N)=O)c2ccccc2)nc(N2CCC(ONC(=N)N)CC2)c1C#N (stereo not drawn) [Example 634, 2-((3,5-dicyano-4-ethyl-6-(4-(guanidinooxy)piperidin-1-yl)pyridin-2-yl)thio)-2-phenylacetamide] |
| – | < 316 | D (Category D: ≥6.5) | – | CCc1c(C#N)c(SC(C(N)=O)c2ccccc2)nc(N(C)CCN2CCC[C@@H]2C)c1C#N (stereo partly drawn) [Example 463, 2-((3,5-dicyano-4-ethyl-6-(methyl(2-((S)-2-methylpyrrolidin-1-yl)ethyl)amino)pyridin-2-yl)thio)-2-phenylacetamide] |
| 316 to 1000 | 1000 to 31600 | – | – | CCc1c(C#N)c(SC(C(N)=O)c2cccc(P(C)(C)=O)c2)nc(N(C)C)c1C#N (stereo not drawn) [Example 419, 2-((3,5-Dicyano-6-(dimethylamino)-4-ethylpyridin-2-yl)thio)-2-(3-(dimethylphosphoryl)phenyl)acetamide] |
| 316 to 1000 | 316 to 1000 | – | – | CCc1c(C#N)c(SC(C(N)=O)c2ncccc2OC)nc(N2CCCN(C)CC2)c1C#N (stereo not drawn) [Example 209, 2-((3,5-Dicyano-4-ethyl-6-(4-methyl-1,4-diazepan-1-yl)pyridin-2-yl)thio)-2-(3-methoxypyridin-2-yl)acetamide] |
| – | < 316 | D (Category D: ≥6.5) | – | CCc1c(C#N)c(SCc2ccc(CS(C)(=O)=O)cc2)nc(N2CCC(N)CC2)c1C#N [Example 499, 2-(4-aminopiperidin-1-yl)-4-ethyl-6-((4-((methylsulfonyl)methyl)benzyl)thio)pyridine-3,5-dicarbonitrile] |
| – | < 316 | D (Category D: ≥6.5) | – | CCc1c(C#N)c(SC(C(N)=O)c2ccccc2)nc(N2CCC(CN3CCN(C)CC3)CC2)c1C#N (stereo not drawn) [Example 469, 2-((3,5-dicyano-4-ethyl-6-(4-((4-methylpiperazin-1-yl)methyl)piperidin-1-yl)pyridin-2-yl)thio)-2-phenylacetamide] |
| – | 316 to 1000 | D (Category D: ≥6.5) | – | CCc1c(C#N)c(SC(C(N)=O)c2ccccc2)nc(N2CC(OC(N)=O)C2)c1C#N (stereo not drawn) [Example 259, 1-(6-((2-Amino-2-oxo-1-phenylethylthio-3,5-dicyano-4-ethylpyridin-2-yl)azetidin-3-yl carbamate] |
| 316 to 1000 | > 31600 | – | – | CCc1c(C#N)c(SC(C(N)=O)c2cccc(F)n2)nc(N2CCCN(C)CC2)c1C#N (stereo not drawn) [Example 206, 2-((3,5-Dicyano-4-ethyl-6-(4-methyl-1,4-diazepan-1-yl)pyridin-2-yl)thio)-2-(6-fluoropyridin-2-yl)acetamide] |
| 1000 to 31600 | > 31600 | – | – | CCc1c(C#N)c(SCc2ccc(CNC(C)=O)cc2)nc(N2CCC(OCCOC(=O)[C@@H](N)C(C)C)CC2)c1C#N [Example 264, (S)-2-((1-(6-((4-(Acetamidomethyl)benzyl)thio)-3,5-dicyano-4-ethylpyridin-2-yl)piperidin-4-yl)oxy)ethyl 2-amino-3-methylbutanoate] |
| – | < 316 | D (Category D: ≥6.5) | – | CCc1c(C#N)c(SC(C(N)=O)c2ccccc2)nc(N2CCO[C@H](CNC(=O)C(C)(C)N)C2)c1C#N (stereo partly drawn) [Example 581, 2-amino-N-(((2R)-4-(6-((2-amino-2-oxo-1-phenylethyl)thio)-3,5-dicyano-4-ethylpyridin-2-yl)morpholin-2-yl)methyl)-2-methylpropanamide] |
| – | < 316 | D (Category D: ≥6.5) | – | CCc1c(C#N)c(SC(C(N)=O)c2ccccc2)nc(N2CCCC(CNC)C2)c1C#N (stereo not drawn) [Example 566, 2-((3,5-dicyano-4-ethyl-6-(3-((methylamino)methyl)piperidin-1-yl)pyridin-2-yl)thio)-2-phenylacetamide] |
| 316 to 1000 | 1000 to 31600 | – | – | CCc1c(C#N)c(SCc2ccc(CNC(C)=O)cc2)nc(N2CCC(OC(=O)[C@@H](N)C(C)C)CC2)c1C#N [Example 289, (S)-1-(6-((4-(Acetamidomethyl)benzyl)thio)-3,5-dicyano-4-ethylpyridin-2-yl)piperidin-4-yl 2-amino-3-methylbutanoate] |
| 316 to 1000 | 1000 to 31600 | – | 316 to 1000 nM | CCc1c(C#N)c(SCc2ccc(COC(C)=O)cc2)nc(N2CCCN(C)CC2)c1C#N [Example 82, 4-(((3,5-Dicyano-4-ethyl-6-(4-methyl-1,4-diazepan-1-yl)pyridin-2-yl)thio)methyl)benzyl acetate] |
| – | < 316 | D (Category D: ≥6.5) | – | CCc1c(C#N)c(SC(C(N)=O)c2ccc(F)cc2)nc(N2CCC(N3CCCC3)CC2)c1C#N (stereo not drawn) [Example 505, 2-((3,5-dicyano-4-ethyl-6-(4-(pyrrolidin-1-yl)piperidin-1-yl)pyridin-2-yl)thio)-2-(4-fluorophenyl)acetamide] |
| 316 to 1000 | < 316 | – | 316 to 1000 nM and 398 nM | CCc1c(C#N)c(SCc2ccc(CNC(=O)CN)cc2)nc(N2CC[C@@H](N)[C@@H](F)C2)c1C#N (relative stereo) [Example 546, rel-2-amino-N-(4-(((6-(cis-4-amino-3-fluoropiperidin-1-yl)-3,5-dicyano-4-ethylpyridin-2-yl)thio)methyl)benzyl)acetamide] |
| 316 to 1000 | > 31600 | – | – | CCc1c(C#N)c(SCc2ccc(N3CCN(C)CC3)cc2)nc(N2CCCN(C)CC2)c1C#N [Example 384, 4-Ethyl-2-(4-methyl-1,4-diazepan-1-yl)-6-((4-(4-methylpiperazin-1-yl)benzyl)thio)pyridine-3,5-dicarbonitrile] |

| Structure (SMILES) | IC50 [1, 3] [nM] | EC50 [2] [nM] | DNMT1 BioChemical (pIC50 category) [1, 4] | IC50 [1, 5] |
| --- | --- | --- | --- | --- |
| CCc1c(C#N)c(SC(C(N)=O)c2ccccc2)nc(N2CCC(NC(=O)C3(N)CCOCC3)CC2)c1C#N (stereo not drawn) [Example 140, 4-Amino-N-(1-(6-((2-amino-2-oxo-1-phenylethyl)thio)-3,5-dicyano-4-ethylpyridin-2-yl)piperidin-4-yl)tetrahydro-2H-pyran-4-carboxamide, Trifluoroacetic Acid Salt] | – | < 316 | D (Category D: ≥6.5) | – |
| COc1c(C#N)c(SCc2ccc(N(C)S(C)(=O)=O)cc2)nc(N2CCC(N)CC2)c1C#N [Example 683, N-(4-(((6-(4-aminopiperidin-1-yl)-3,5-dicyano-4-methoxypyridin-2-yl)thio)methyl)phenyl)-N-methylmethanesulfonamide hydrochloride] | – | < 316 | D (Category D: ≥6.5) | 316 to 1000 nM and 316 nM |
